Data on 5 compounds can be found in US9128097B2, “Method and kit for assessing viable cells” (ChemoMetec A/S, priority 2008, dated 2015).

One assay has as its system Jurkat (JM) cells. Briefly: Staining of proliferating Jurkat cells with labelling agent and propidium iodide, fluorescence microscopy. The note with it: 10 μL agent (100 μg pr. mL DMSO) added to 90 μL cells, only exception PI positive cells. The class given is cell-based. The procedure:
(§1) Materials and Methods. Jurkat (JM) cells were grown at 37° C. in a humidified air atmosphere with 5% CO2 in RPMI (Invitrogen, #61870) supplemented with 10% heat-inactivated fetal bovine serum (Invitrogen, #10108-165). 90 μL proliferating Jurkat cells (cell density 1.2×10^6, 99% viable determined using the NC-100 NucleoCounter system following the manufacturer's (ChemoMetec A/S) protocol) were added 10 μL NAM (N-(9-acridinyl)maleimide, Sigma, #01665, CAS no. 49759-20-8) dissolved in DMSO (100 μg NAM pr. mL DMSO) and mixed by pipetting. Cells were loaded into a NucleoCassette, containing the DNA stain propidium iodide (PI). The cells were investigated using an Olympus IX50 fluorescence microscope, and images were captured using a Lumenera CCD camera and in-house developed software. PI and NAM fluorescence were detected using, respectively, U-MWG2 (green long pass: 510-550 nm) and U-MNUA2 (UV band pass, 330-385 nm) filter cubes (Olympus).
as §1, with “1.0×10^6,” for “1.2×10^6,”, “(ChemoMetec)” for “(ChemoMetec A/S)”, “CPM (7-diethylamino-3-[4′-maleimidylphenyl]-4-methylcoumarin, Chemodex Ltd.,” for “NAM (N-(9-acridinyl)maleimide, Sigma, #01665,”, “76877-33-3)” for “49759-20-8)”, “CPM” for “NAM”
as §1, with “1.1×10^6, 98%” for “1.2×10^6, 99%”, “(ChemoMetec)” for “(ChemoMetec A/S)”, “PM (N-(1-Pyrenyl)maleimide, Sigma P7908” for “NAM (N-(9-acridinyl)maleimide, Sigma, #01665,”, “42189-56-0)” for “49759-20-8)”, “PM” for “NAM”, “Cells were loaded into a NucleoCassette, containing the DNA stain propidium iodide (PI).” left out
Materials and Methods. […] 90 μL proliferating Jurkat cells (cell density 1.1×10^6, 98% viable determined using the NC-100 NucleoCounter system following the manufacturer's (ChemoMetec) protocol) were added 10 μL CPI (7-diethylamino-3-((4′-(iodoacetyl)amino)phenyl)-4-methylcoumarin, Sigma 78264 CAS no. 76877-34-4) dissolved in DMSO (100 μg CPI pr. mL DMSO) and mixed by pipetting. […] The cells were investigated using an Olympus IX50 fluorescence microscope, and images were captured using a Lumenera CCD camera and in-house developed software. PI and CPI fluorescence were detected using, respectively, U-MWG2 (green long pass: 510-550 nm) and U-MNUA2 (UV band pass, 330-385 nm) filter cubes (Olympus). […]

For another assay, the system named is HEK293 cells. Briefly: NAM/PI staining of outgrown HEK293 cells, fluorescence microscopy. The class given is cell-based, Human. The note with it: HEK293 cells treated with 0.25% Triton X-100; 10 μg/mL NAM. The procedure:
Materials and Methods. HEK293 cells were grown at 37° C. in a humidified air atmosphere with 5% CO2 in DMEM (Invitrogen, #31966) supplemented with 10% heat-inactivated fetal bovine serum (Invitrogen, #10108-165). Cells were harvested with 0.5 mL of trypsin (Invitrogen, #25300) and neutralized with 5 mL medium (DMEM+10% FCS) two days after they had reached full confluency. These outgrown HEK293 cells (cell density 1.6×10^6, 78% viable determined using the NC-100 NucleoCounter system following the manufacturer's (ChemoMetec) protocol) were stained with 10 μg/mL NAM (Sigma, #01665). Another cell sample were treated with 0.25% Triton X-100 (Sigma, #T9284) and hereafter added 10 μg/mL NAM. After staining, each cell sample was loaded into a NucleoCassette, containing the DNA stain propidium iodide (PI). The cells were investigated using an Olympus IX50 fluorescence microscope, and images were captured using a Lumenera CCD camera and in-house developed software. PI and NAM fluorescence were detected using, respectively, U-MWG2 (green long pass: 510-550 nm) and U-MNUA2 (UV band pass, 330-385 nm) filter cubes (Olympus).

Assay [1] concerns bone marrow derived dendritic cells (BM-DCs). Briefly: Staining of bone marrow derived dendritic cells with labelling agent and PI. The class given is cell-based, murine. Particulars: dendritic cells 97% viable; 10 μL mCB (100 μg pr. mL DMSO) to 90 μL cells; incubated at room temperature for 1 hour. From the text:
Materials and Methods. Dendritic cells were developed from murine bone marrow derived cells as described by “Lutz, M. B., N. Kukutsch, A. L. Ogilvie, S. Rossner, F. Koch, N. Romani, and G. Schuler. 1999. An advanced culture method for generating large quantities of highly pure dendritic cells from mouse bone marrow. J Immunol Methods 223:77-92”. Bone marrow cells were harvested aseptically in the laminar flow hood as described in example 11. Washed and resuspended bone marrow cells were resuspended in RPMI 1640 (Invitrogen, #61870) supplemented with 10% heat-inactivated fetal bovine serum (Invitrogen, #10108-165), 100 U/mL penicillin and 100 μg/mL streptomycin (Invitrogen, #15140-122). […] 90 μL dendritic cells (cell density 1.2×10^6, 97% viable determined using the NC-100 NucleoCounter system following the manufacturer's (ChemoMetec A/S) protocol) were added 10 μL NAM (N-(9-acridinyl)maleimide, Sigma, #01665, CAS no. 49759-20-8) dissolved in DMSO (100 μg NAM pr. mL DMSO) and mixed by pipetting. […] The cells were investigated using an Olympus IX50 fluorescence microscope, and images were captured using a Lumenera CCD camera and in-house developed software. PI and NAM fluorescence were detected using, respectively, U-MWG2 (green long pass: 510-550 nm) and U-MNUA2 (UV band pass, 330-385 nm) filter cubes (Olympus). […]

For `CCN(CC)c1ccc2c(C)c(-c3ccc(NC(=O)CI)cc3)c(=O)oc2c1` [CPI, 7-diethylamino-3-((4′-(iodoacetyl)amino)phenyl)-4-methylcoumarin], the “staining of cells (UV filter) versus PI positive cells” value in the assay on Jurkat (JM) cells is “nearly all cells were stained by CPI”.

Take `CCN(CC)c1ccc2c(C)c(-c3ccc(N4C(=O)C=CC4=O)cc3)c(=O)oc2c1` [CPM, 7-diethylamino-3-[4′-maleimidylphenyl]-4-methylcoumarin]: the “staining of cells (UV filter) versus PI positive cells” value in the assay on Jurkat (JM) cells is reported as “nearly all cells were stained by CPM”.

Regarding `CC[N+](C)(CC)CCC[n+]1c(-c2ccccc2)c2cc(N)ccc2c2ccc(N)cc21.[I-].[I-]` [PI, propidium iodide], the “staining of Triton X-100 treated cells” value with HEK293 cells was “PI positive”.

Regarding `O=C1C=CC(=O)N1c1ccc2ccc3cccc4ccc1c2c34` [PM, N-(1-Pyrenyl)maleimide], the “staining of cells (UV filter) versus PI positive cells” value in the assay with Jurkat (JM) cells was “nearly all cells were stained by PM”.

For `Cc1c(C)n2c(CCl)c(C)c(=O)n2c1=O` [mCB, monochlorobimane], the “staining of cells (UV filter) versus PI positive cells” value in assay [1] is on record as “nearly all the dendritic cells were stained by mCB”.
